# Test results published in US11643428B2, “Therapeutic drug for neurodegenerative disease and application thereof” (SHANGHAI PHARMACEUTICALS HOLDING CO., LTD., priority 2018, dated 2023).
# Legend:
# [1] = test system: neuroblastoma cells SK-N-SH; assay: Total Aβ in supernatant of SK-N-SH cells by ELISA; assay type: cell-based; conditions: 24 hours
# Experimental: Culture of neuroblastoma cells SK-N-SH and Aβ detection: SK-N-SH cells were cultured in DMEM, plated to 24 well plates and cultured for 24 hours, then PL201 (0, 30, 100, and 300 μM) was added. After co-incubation for 24 hours, the protein level of total Aβ in supernatant was detected by ELISA.
# Culture of neuroblastoma cells SK-N-SH and Aβ detection: SK-N-SH cells were cultured in DMEM, plated to 24 well plates and cultured for 24 hours, then PL202 (0, 30, and 100 μM) was added. After co-incubation for 24 hours, protein level of total Aβ in supernatant was detected by ELISA.
# Culture of neuroblastoma cells SK-N-SH and Aβ detection: SK-N-SH cells were cultured in DMEM, plated to 24 well plates and cultured for 24 hours, then PL171 (300 μM) was added. After co-incubation for 24 hours, protein level of total Aβ in supernatant was detected by ELISA.
# Culture of neuroblastoma cells SK-N-SH and Aβ detection: SK-N-SH cells were cultured in DMEM, plated to 24 well plates and cultured for 24 hours, then PL172 (300 μM) was added. After co-incubation for 24 hours, protein level of total Aβ in supernatant was detected by ELISA.
# mouse BV-2 cell line = assay: Expression of inflammatory factors in LPS-treated BV-2 cells by QPCR; assay type: cell-based; conditions: PL202 30, 100, 300 μM, LPS 300 ng/ml, 24 hours
# Experimental: Neuroinflammation in the brain of AD is one of the causes of cognitive decline. Microglial cells are the key cells that mediate neuroinflammation. In this example, the inventors have explored whether PL201 has the effect of inhibiting neuroinflammation by detecting the expressions of inflammatory factors on mouse BV-2 cell line.
# BV-2 cells were cultured in DMEM, plated to 24 well plates and cultured for 24 hours, then PL201 (0, 10, 30, and 100 μM) and LPS (300 ng/ml) were added. After co-incubation for 24 hours, Trizol was used to extract RNA and the expressions of related inflammatory factors were detected by QPCR.
# Mouse BV-2 cells were cultured in DMEM, plated to 24 well plates and cultured for 24 hours, then PL202 (0, 30, 100, and 300 μM) and LPS (300 ng/ml) were added. After co-incubation for 24 hours, Trizol was used to extract RNA and the expressions of related inflammatory factors were detected by QPCR.
SMILES,Aβ production (total Aβ in supernatant) ([1]; 300 μM),expression of inflammatory factor IL-1β (mouse BV-2 cell line),expression of inflammatory factor iNOS (mouse BV-2 cell line),"Aβ production (total Aβ in supernatant) ([1]; 30, 100 μM)"
"COc1cc(/C=C/C(=O)NC2OC(C)C(O)C(O)C2O)ccc1O [PL171, (1-amino-β-L-rhamnopyranosyl) ferulamide]",significantly inhibited,–,–,–
"COc1cc(/C=C/C(=O)NC2OC(C)C(O)C(O)C2O)ccc1O [PL172, (1-amino-α-L-rhamnopyranosyl) ferulamide]",significantly inhibited,–,–,–
"COc1cc(/C=C/C(=O)OC2OC(C)C(O)C(O)C2O)ccc1O [PL202, (β-L-rhamnopyranosyl) ferulic acid ester]",–,significantly inhibited,significantly inhibited,significantly inhibited
